Assay results from patent US20150330990A1, “METHOD OF SCREENING CANDIDATE BIOCHEMICAL ENTITIES TARGETING A TARGET BIOCHEMICAL ENTITY” (BIODESY, INC., priority 2013, published 2015).
“And” between values parts separate entries of the source, which are not always exact repeats. Equal entries are not always repeated. One block for each compound: values may come before it.

Tests used:
alpha-synuclein [1] = target: T1, alpha-synuclein (Homo sapiens, UniProt P37840, A90C); conditions: 1 mM Dopamine, 50 mM Hepes pH 7.4, 100 mM NaCl
Description: An alanine to cysteine mutation (A90C) was introduced into alpha-synuclein to produce a site-specific peptide for dye conjugation, as native alpha-synuclein lacks cysteine residues. A90C alpha-synuclein was then labeled with PyMPO-Maleimide using standard techniques and the location of the modified peptide was verified by mass spectroscopy to be cysteine 90.
For SHG experiments performed with alpha-synuclein, a stock solution of PyMPO-Maleimide-labeled A90C alpha-synuclein was diluted to a final concentration of 5 μM in 50 mM Hepes, pH 7.4, 100 mM NaCl. The 5 μM protein solution was then immobilized onto an aldehyde derivatized glass slide by incubating for one hour at room temperature. Control (buffer) and compound injections were performed in 50 mM Hepes, pH 7.4, 100 mM NaCl.
The experiments were performed with an instrument comprising a mode-locked Ti:sapphire oscillator which provides the fundamental beam necessary to generate the second-harmonic signal (high peak power intensity). We used a Mira 900 Ti:Sapphire ultrafast oscillator (Coherent Inc.) pumped by a Millenia V DPSS laser (Spectra-Physics Corp.). The Ti:sapphire oscillator produced ˜0.7 W of fundamental power at 780 nm with pulse duration of ˜150 fs at 80 MHz. […]

Raf kinase = test: SHG signature on Raf kinase surface array (Example 4); format: binding; conditions: positive direction
Description: A library comprising 200 distinct compounds and Sorafenib, each with a molecular weight between 400 and 500 g/mol, three aromatic groups, and 2-5 nitrogen atoms, is evaluated for the structure-activity relationship using a surface array comprising more than 200 copies of a Raf kinase. The conformation state of the Raf kinase is measured by […] (SHG) methods described in the present application to establish a baseline in the absence of any compound. Each compound in the library is then contacted with a single copy of the Raf kinase on the array. The conformational state of each copy of the single kinase target is measured by SHG methods. The SHG signature for each compound is determined based on the change in conformational state upon contacting the Raf kinase. Sorafenib has a SHG signature with a 30% shift (i.e. magnitude) in the positive direction. The compounds are grouped, based on their SHG signature and common structural parameters, to generate a structure-activity relationship (SAR) catalog. For example, the 8 compounds that have a signature within 10% in magnitude to that of Sorafenib are cataloged as “molecular weight between 400 and 500 g/mol, three aromatic groups, 2-5 nitrogen atoms, and a signature with +27% to +33% magnitude”. […]

alpha-synuclein [2] = target: T1, alpha-synuclein; test: SHG competition assays (spermine-spermidine, spermine-COMPOUND A, analog-spermine, library screen); format: binding; parameters: made in house; conditions: 3 mM Spermidine added after 25 minutes incubation with 1 mM Spermine
Description: The Maybridge Ro3 fragment library contains over 1,000 pharmacophoric compounds of 95% purity solubilized at 50 mM in DMSO. For fragment screening experiments, a single compound from the library was diluted in PBS and placed in each well at a final concentration of 1 mM ([…]).
After 25 minutes, 3 mM spermidine was added to each well and the resulting change in SHG intensity was measured.
To calculate the percent change, the SHG intensity as measured just prior to injection (T0) was subtracted from the SHG intensity at Tmax and then divided by T0 according to the following equation: SHG %=(ISHG@Tmax−ISHG@T0)/ISHG@T0.
A control buffer injection was used to determine the threshold for SHG intensity change and was calculated in a similar manner to above. The net SHG intensity change for each compound was then reported by subtracting the buffer threshold value from the SHG intensity value produced by compound addition. The resulting value was reported as the percent change in SHG intensity due to compound addition.
Each well was loaded with 5 μM alpha-synuclein and pre-incubated with one fragment compound from the Maybridge Ro3 library for 30 minutes at 1 mM in assay buffer. […] As shown in FIG. 2C (right trace), addition of 1 mM COMPOUND A to alpha-synuclein changes the SHG baseline signal immediately.

alpha-synuclein [3] = target: T1, alpha-synuclein; test: SHG conformational change assay, compound added alone; format: binding; parameters: made in house; conditions: for EC50: 5 μM alpha-synuclein, GraphPad non-linear fit, read-out: EC50 (SHG dose-response curve; binding affinity)
Text: A single-site cysteine mutant […]) of the alpha-synuclein was constructed and labeled with PyMPO-maleimide (Invitrogen), an SH-active probe that we have used in previous studies ([…], Journal of Chemical Physics 125(7), 2006; […], Physical Chemistry Chemical Physics 9(42):5704-5711, 2007). Mutant […]) protein was previously determined to function like wild-type (Bertoncini C W, et al., Proceedings of the National Academy of Sciences of the United States of America 102(5):1430-1435, 2005). The label was coupled to the protein according to the manufacturer's instructions and purified by gel filtration. Artemis SHG Screening Instrumentation: The Artemis instrument is comprised of a mode-locked Ti:sapphire oscillator that provides the fundamental beam necessary to generate second-harmonic light (high peak power intensity). […] Each of the 16 wells is read in sequence by translating the stage via the control software. Artemis was outfitted with a single-channel liquid injector (Cavro) which delivered a liquid bolus. The liquid bolus volume and delivery speed could be varied. In the experiments described here, we used a volume of 10 μl delivered in 1 second. The measured parameters include the read time before and after ligand injection, integration time, stage temperature (kept at room temperature for all experiments here), and the stage position, relative to the line of the fundamental beam. A custom silicone template with adhesive backing (Arrowleaf Research) was applied to commercially available Xenobind glass microscope slides (Xenopore) using a custom machined assembly jig to define 16 wells of diameter 3 mm (volume 15 μl) on each slide. The template defining the wells is registered to a standard 96-well plate. […] After allowing the protein to absorb, the slide was placed on the […] platform and each well was scanned via SHG to determine the amount of protein in each well. Unbound protein was then removed by washing five times with 20 μL PBS. A post-wash well scan was then performed to determine how much protein was bound to the slide surface. To determine the dose-response curves of Spermine (Sigma), Spermidine (Sigma), and COMPOUND A, serial dilutions of each compound were used to prepare stock solutions. Each compound was added to a well to produce the indicated final concentration. […] For COMPOUND A the concentration range was 5 μ[…], and 1 mM. The concentrations were then converted to the log scale and the data plotted in GraphPad Prism V5 using the non-linear regression fit for log(agonist) vs response with variable slope. […] The EC50 values were calculated by the software. Control experiments were performed on each compound to empirically determine the time frame required for each compound to produce a maximal response (Tmax). […] The resulting value was reported as the percent change in SHG intensity due to compound addition.

alpha-synuclein [4] = target: T2, alpha-synuclein (Homo sapiens, UniProt P37840); test: Thioflavin T assay / fibrillization of alpha-synuclein in vitro; format: biochemical
alpha-synuclein [5] = target: T2, alpha-synuclein; conditions: cited from earlier work

- increase of the rate of aggregation of alpha-synuclein in vitro (alpha-synuclein [4]): roughly two-fold
- EC50 (alpha-synuclein [3]): 840 µM and 790 µM
- Compound Only (% Shift/% Change) (alpha-synuclein [3]; 1 mM): 30.23 ± 3.69%
- change in SHG intensity (alpha-synuclein [3]; 1 mM compound added alone to 5 μM alpha-synuclein): 25.58±4.33% and 30.23±3.69%
- change in the SHG intensity (alpha-synuclein [3]; 5 mM compound added alone to 5 μM alpha-synuclein): 36.26±4.97% and 37.44±6.40%
Compound: NCCCNCCCCNCCCN [Spermine]
- factor of increase of aggregation rate in vitro (alpha-synuclein [5]): 10^5

- change in the SHG intensity of alpha-synuclein (alpha-synuclein [3]; treatment with 10 μM PcTS): −79.6±2.7%
Compound: Phthalocyanine Tetrasulfonate [PcTs]

More lines, now with the values behind:

Compound: NCCc1ccc(O)c(O)c1 [Dopamine]
- average percent change in the SHG intensity of alpha-synuclein (alpha-synuclein [1]): 3.375±1.13%

Compound: CNC(=O)c1cc(Oc2ccc(NC(=O)Nc3ccc(Cl)c(C(F)(F)F)c3)cc2)ccn1 [Sorafenib]
- SHG signature shift (magnitude) (Raf kinase): 30%

Compound: NCCCCNCCCN [Spermidine]
- change in SHG intensity (alpha-synuclein [2]): 5.1±0.81%
- EC50 (alpha-synuclein [3]): 1110 µM
- increase in SHG intensity (alpha-synuclein [3]; 3 mM compound added alone): 19.88±2.37%
- logEC50 (alpha-synuclein [3]; SHG dose-response curve): −2.95±0.19
